US10093675B2, “6,8-disubstituted-9-(heterocyclyl)purines, compositions containing these derivatives and their use in cosmetic and medicinal applications” (USTAV EXPERIMENTALNI BOTANIKY AV CR, V.V.I., priority 2014, dated 2018)

Columns and labels:
[1] = test system: human diploid fibroblasts (HDF cells; HDF25, HDF45, HDF80); experiment: Inhibition of human cell aging: senescent cells by beta-galactosidase staining; format: cell-based; conditions: for SENESCENT CELLS (%) HDF25: human diploid fibroblasts passage 25, beta-galactosidase staining; for SENESCENT CELLS (%) HDF45: human diploid fibroblasts passage 45, beta-galactosidase staining; for SENESCENT CELLS (%) HDF80: human diploid fibroblasts passage 80, beta-galactosidase staining
In short: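 Cells of passages 25, 45 and 80 fixed 5 min at room temperature in 2% formaldehyde/0.2% glutaraldehyde in PBS, then incubated at 37° C with beta-galactosidase substrate. Senescent cells identified by blue staining.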

[2] = test system: excised wheat leaf tips (Triticum aestivum cv. Hereward); experiment: Senescence inhibition on winter wheat leaf segments (retention of chlorophyll); format: in vivo; conditions: 10^−4 mol/L; 96 hours in the dark; activity of kinetin set at 100%
In short: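 First-leaf tips from 7-day-old wheat seedlings stood with their bases in test solution for 96 h in the dark at 25° C. Chlorophyll was then extracted in hot 80% ethanol and read at 665 nm. Activity at each compound's best concentration is relative to 10^−4 M kinetin (100%), as means of five replicates.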

[3] = Radical scavenging activity determined by ORAC (Oxygen Radical Absorbance Capacity); format: biochemical; conditions: Mean ± SD (n = 3); net area under the curve relative to trolox, equimolar basis
Method: The ability of compounds to scavenge free radicals in vitro was determined by Oxygen Radical Absorbance Capacity (ORAC) method. Fluorescein (100 μL, […]) and 25 μL of compound solution were added into each working well in a 96-well microplate preincubated at 37° C. Thereafter, 25 μL of 250 mM AAPH was quickly added, microplate was shaken for 5 s and the fluorescence (Ex. 485 nm, Em. 510 nm) was read every 3 min over 90 min by using microplate reader Infinite 200 (TECAN, Switzerland). The net area under the curve was used to express antioxidant activity relative to trolox which was used as a standard.

[4] = test system: detached leaves of Triticum aestivum cv. Hereward; experiment: Membrane lipid peroxidation (MDA, TBA method) in detached wheat leaves during dark senescence; format: in vivo; conditions: four days in the dark, Control 18.9 (±2.2)
In short: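 Leaf tips from 7-day wheat seedlings were kept with compound or kinetin for four days in the dark. 100 mg tissue was extracted in 80% methanol and heated 30 min at 95 °C with 0.5% TBA/0.1% TCA. MDA came from A532 minus A600, using 155 mM^−1cm^−1.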

Compound | SENESCENT CELLS (%) HDF25 [1] | SENESCENT CELLS (%) HDF45 [1] | SENESCENT CELLS (%) HDF80 [1] | Activity (%) (s.d.), retention of chlorophyll [2] | ORAC (compound/trolox ratio) [3] | MDA (nmol/g FW) [4]
Fc1ccc(CNc2ncnc3c2nc(Br)n3C2CCCCO2)cc1F (stereo not shown) [Compound 27] | 2% | 4% | 21% | 124 (±4) % |  | 
C/C(=C\CNc1ncnc2c1nc(Cl)n2C1CCCO1)CO (stereo not shown) [Compound 64] | 3% | 4% | 8% | 123 (±4) % |  | 
CSc1nc2c(NCc3ccco3)ncnc2n1C1CCCCO1 (stereo not shown) [Compound 145, 6-Furfurylamino-8-methylsulfanyl-9-(tetrahydropyran-2-yl)-9H-purine] |  |  |  |  | 1.3 ± 0.1 | 9.6 (±0.8) nmol/g FW
C/C(=C\CNc1ncnc2c1nc(Br)n2C1CCCCO1)CO (stereo not shown) [Compound 24, (E)-8-Bromo-6-(4-hydroxy-3-methylbut-2-en-1-ylamino)-9-(tetrahydropyran-2-yl)-9H-purine] | 3% | 5% | 21% | 123 (±6) % |  | 11.4 (±0.9) nmol/g FW
COc1cccc(CNc2ncnc3c2nc(Cl)n3C2CCCO2)c1 (stereo not shown) [Compound 69] | 3% | 4% | 14% | 115 (±4) % |  | 
Fc1cccc(CNc2ncnc3c2nc(Br)n3C2CCCCO2)c1 (stereo not shown) [Compound 26] | 2% | 5% | 19% | 117 (±5) % |  | 
COc1nc2c(NCc3ccco3)ncnc2n1C1CCCCO1 (stereo not shown) [Compound 124, 6-Furfurylamino-8-methoxy-9-(tetrahydropyran-2-yl)-9H-purine] |  |  |  |  | 30.1 ± 3.1 | 10.3 (±0.7) nmol/g FW
